From patent US20190307843A1, “SINGLE DOSE METHODS FOR PREVENTING AND TREATING FUNGAL INFECTIONS” (Cidara Therapeutics, Inc., priority 2016, published 2019)
Converted amounts (≈) assume the structure as drawn. Read-outs that look alike come from different tables or passages of the source. Starred links: 1 amine or outer side, 2 acyl side, 3 side chain; linkers in the order of their positions; H or OH if unused. Positions of bridges follow the written chain, without caps; N, C: chain ends. Non-standard residues stand in square brackets, D forms with d. Residues, ends and D or L forms follow the SMILES beside them. *: point of attachment. hTyr(3S-OH,4S-OH,3'-OSO3H) = N[C@H](C(=O)O)[C@H](O)[C@@H](O)c1ccc(O)c(OS(=O)(=O)O)c1; Orn(4R-OH,5R-OH) = O=C([C@H](C[C@@H](O)[C@@H](O)N[*:3])N[*:1])[*:2]; Pro(3S-OH,4S-Me) = C[C@H]1CN[C@H](C(=O)O)[C@H]1O; X1 = CCCCCOc1ccc(-c2cc(-c3ccc(C(=O)*)cc3)no2)cc1; Gln(3R-OH) = NC(=O)C[C@@H](O)[C@H](N)C(=O)O; Hyp = O=C(O)[C@@H]1C[C@@H](O)CN1

Tests used:
Candida auris strains = assay: Candida auris antifungal susceptibility testing (CLSI M27-A3), 38 strains; type: cell-based; details: for MIC: Candidozyma auris, read-out: MIC
[1] = test system: A. fumigatus strain AF293; assay: Murine model of pulmonary aspergillosis (Example 13), terminal lung burden; type: in vivo, Aspergillus fumigatus
Protocol: A secondary endpoint for the study was terminal lung tissue burden. Immediately following confirmation of death, carcasses were frozen at −20° C. prior to tissue dissection and processing. The frozen carcasses were thawed at room temperature and the lungs removed and placed into pre-weighed bead-beating tubes containing 2 mL of PBS and subjected to mechanical disruption. Organ homogenates were diluted further in PBS and quantitatively cultured for A. fumigatus onto SABC and incubated at 30° C. for 24-48 hours. In addition, a 300 μL aliquot of the undiluted lung tissue homogenate was stored at −80° C. for possible optional assessment of burden by qPCR.

CCCCCOc1ccc(-c2cc(-c3ccc(C(=O)N[C@H]4C[C@@H](O)[C@@H](O)NC(=O)[C@@H]5[C@@H](O)[C@@H](C)CN5C(=O)[C@H]([C@H](O)CC(N)=O)NC(=O)[C@H]([C@H](O)[C@@H](O)c5ccc(O)c(OS(=O)(=O)O)c5)NC(=O)[C@@H]5C[C@@H](O)CN5C(=O)[C@H]([C@@H](C)O)NC4=O)cc3)no2)cc1 [Micafungin, micafungin] (X1-[Orn(4R-OH,5R-OH)]T[Hyp][hTyr(3S-OH,4S-OH,3'-OSO3H)][Gln(3R-OH)][Pro(3S-OH,4S-Me)]; lactam 1-C)
number of resistant isolates (Candida auris strains): 4
MIC (Candida auris strains; 24 h, strain 1 VPCI 669/P/12, 24 h): 0.125 µg/mL (≈ 0.0984 µM)
MIC (Candida auris strains; 24 h, strain 2 VCPI 671/P/12, 24 h): 0.125 µg/mL (≈ 0.0984 µM)
MIC (Candida auris strains; 24 h, strain 3 VCPI 674/P/12, 24 h): 0.06 µg/mL (≈ 0.0472 µM)
MIC (Candida auris strains; 24 h, strain 4 VCPI 683/P/12, 24 h): 0.125 µg/mL (≈ 0.0984 µM)
MIC (Candida auris strains; 24 h, strain 5 VCPI 692/P/12, 24 h): 0.125 µg/mL (≈ 0.0984 µM)
MIC (Candida auris strains; 24 h, strain 6 VCPI 712/P/12, 24 h): 0.125 µg/mL (≈ 0.0984 µM)
MIC (Candida auris strains; 24 h, strain 7 VCPI 471/P/13, 24 h): 0.25 µg/mL (≈ 0.197 µM)
MIC (Candida auris strains; 24 h, strain 8 VCPI 475/P/13, 24 h): 0.125 µg/mL (≈ 0.0984 µM)
MIC (Candida auris strains; 24 h, strain 9 VCPI 478/P/13, 24 h): 0.125 µg/mL (≈ 0.0984 µM)
MIC (Candida auris strains; 24 h, strain 10 VCPI 479/P/13, 24 h): 0.125 µg/mL (≈ 0.0984 µM)
MIC (Candida auris strains; 24 h, strain 11 VCPI 480/P/13, 24 h): 0.125 µg/mL (≈ 0.0984 µM)
MIC (Candida auris strains; 24 h, strain 12 VCPI 482/P/13, 24 h): 0.125 µg/mL (≈ 0.0984 µM)
MIC (Candida auris strains; 24 h, strain 13 VCPI 483/P/13, 24 h): 0.125 µg/mL (≈ 0.0984 µM)
MIC (Candida auris strains; 24 h, strain 14 VCPI 1130/P/13, 24 h): 0.125 µg/mL (≈ 0.0984 µM)
MIC (Candida auris strains; 24 h, strain 15 VCPI 1132/P/13, 24 h): 0.125 µg/mL (≈ 0.0984 µM)
MIC (Candida auris strains; 24 h, strain 16 VCPI 1133/P/13, 24 h): 16 µg/mL (≈ 12.6 µM)
MIC (Candida auris strains; 24 h, strain 17 VCPI 105/P/14, 24 h): 0.125 µg/mL (≈ 0.0984 µM)
MIC (Candida auris strains; 24 h, strain 18 VCPI 107/P/14, 24 h): 0.06 µg/mL (≈ 0.0472 µM)
MIC (Candida auris strains; 24 h, strain 19 VCPI 510/P/14, 24 h): 0.125 µg/mL (≈ 0.0984 µM)
MIC (Candida auris strains; 24 h, strain 20 VCPI 511/P/14, 24 h): 0.125 µg/mL (≈ 0.0984 µM)
MIC (Candida auris strains; 24 h, strain 21 VCPI 512/P/14, 24 h): 0.125 µg/mL (≈ 0.0984 µM)
MIC (Candida auris strains; 24 h, strain 22 VCPI 513/P/14, 24 h): 0.125 µg/mL (≈ 0.0984 µM)
MIC (Candida auris strains; 24 h, strain 23 VCPI 514/P/14, 24 h): 0.25 µg/mL (≈ 0.197 µM)
MIC (Candida auris strains; 24 h, strain 24 VCPI 250/P/14, 24 h): 0.125 µg/mL (≈ 0.0984 µM)
MIC (Candida auris strains; 24 h, strain 25 VCPI 265/P/14, 24 h): 16 µg/mL (≈ 12.6 µM)
MIC (Candida auris strains; 24 h, strain 26 VCPI 266/P/14, 24 h): 0.125 µg/mL (≈ 0.0984 µM)
MIC (Candida auris strains; 24 h, strain 27 VCPI 462/P/14, 24 h): 16 µg/mL (≈ 12.6 µM)
MIC (Candida auris strains; 24 h, strain 28 VCPI 463/P/14, 24 h): 0.125 µg/mL (≈ 0.0984 µM)
MIC (Candida auris strains; 24 h, strain 29 VCPI 467/P/14, 24 h): 0.25 µg/mL (≈ 0.197 µM)
MIC (Candida auris strains; 24 h, strain 31 VCPI 478/P/14, 24 h): 0.5 µg/mL (≈ 0.394 µM)
MIC (Candida auris strains; 24 h, strain 32 VCPI 518/P/14, 24 h): 0.25 µg/mL (≈ 0.197 µM)
MIC (Candida auris strains; 24 h, strain 33 VCPI 550/P/14, 24 h): 0.25 µg/mL (≈ 0.197 µM)
MIC (Candida auris strains; 24 h, strain 34 VCPI 714/P/14, 24 h): 0.125 µg/mL (≈ 0.0984 µM)
MIC (Candida auris strains; 24 h, strain 35 VCPI 717/P/14, 24 h): 0.125 µg/mL (≈ 0.0984 µM)
MIC (Candida auris strains; 24 h, strain 36 VCPI 1060/P/14, 24 h): 0.25 µg/mL (≈ 0.197 µM)
MIC (Candida auris strains; 24 h, strain 37 VCPI 74/P/15, 24 h): 0.25 µg/mL (≈ 0.197 µM)
MIC (Candida auris strains; 24 h, strain 38 VCPI 213/P/15, 24 h): 0.25 µg/mL (≈ 0.197 µM)
MIC (Candida auris strains; 24 h): 16 µg/mL (≈ 12.6 µM)
MIC (Candida auris strains; 48 h, strain 1 VPCI 669/P/12, 48 h): 0.25 µg/mL (≈ 0.197 µM)
MIC (Candida auris strains; 48 h, strain 2 VCPI 671/P/12, 48 h): 0.25 µg/mL (≈ 0.197 µM)
MIC (Candida auris strains; 48 h, strain 3 VCPI 674/P/12, 48 h): 0.125 µg/mL (≈ 0.0984 µM)
MIC (Candida auris strains; 48 h, strain 4 VCPI 683/P/12, 48 h): 0.25 µg/mL (≈ 0.197 µM)
MIC (Candida auris strains; 48 h, strain 5 VCPI 692/P/12, 48 h): 0.25 µg/mL (≈ 0.197 µM)
MIC (Candida auris strains; 48 h, strain 6 VCPI 712/P/12, 48 h): 0.125 µg/mL (≈ 0.0984 µM)
MIC (Candida auris strains; 48 h, strain 7 VCPI 471/P/13, 48 h): 0.25 µg/mL (≈ 0.197 µM)
MIC (Candida auris strains; 48 h, strain 8 VCPI 475/P/13, 48 h): 0.25 µg/mL (≈ 0.197 µM)
MIC (Candida auris strains; 48 h, strain 9 VCPI 478/P/13, 48 h): 0.125 µg/mL (≈ 0.0984 µM)
MIC (Candida auris strains; 48 h, strain 10 VCPI 479/P/13, 48 h): 0.125 µg/mL (≈ 0.0984 µM)
MIC (Candida auris strains; 48 h, strain 11 VCPI 480/P/13, 48 h): 0.125 µg/mL (≈ 0.0984 µM)
MIC (Candida auris strains; 48 h, strain 12 VCPI 482/P/13, 48 h): 0.125 µg/mL (≈ 0.0984 µM)
MIC (Candida auris strains; 48 h, strain 13 VCPI 483/P/13, 48 h): 0.125 µg/mL (≈ 0.0984 µM)
MIC (Candida auris strains; 48 h, strain 14 VCPI 1130/P/13, 48 h): 0.125 µg/mL (≈ 0.0984 µM)
MIC (Candida auris strains; 48 h, strain 15 VCPI 1132/P/13, 48 h): 0.125 µg/mL (≈ 0.0984 µM)
MIC (Candida auris strains; 48 h, strain 16 VCPI 1133/P/13, 48 h): > 16 µg/mL
MIC (Candida auris strains; 48 h, strain 17 VCPI 105/P/14, 48 h): 0.125 µg/mL (≈ 0.0984 µM)
MIC (Candida auris strains; 48 h, strain 18 VCPI 107/P/14, 48 h): 0.06 µg/mL (≈ 0.0472 µM)
MIC (Candida auris strains; 48 h, strain 19 VCPI 510/P/14, 48 h): 0.125 µg/mL (≈ 0.0984 µM)
MIC (Candida auris strains; 48 h, strain 20 VCPI 511/P/14, 48 h): 0.125 µg/mL (≈ 0.0984 µM)
MIC (Candida auris strains; 48 h, strain 21 VCPI 512/P/14, 48 h): 0.125 µg/mL (≈ 0.0984 µM)
MIC (Candida auris strains; 48 h, strain 22 VCPI 513/P/14, 48 h): 0.25 µg/mL (≈ 0.197 µM)
MIC (Candida auris strains; 48 h, strain 23 VCPI 514/P/14, 48 h): 0.25 µg/mL (≈ 0.197 µM)
MIC (Candida auris strains; 48 h, strain 24 VCPI 250/P/14, 48 h): 0.125 µg/mL (≈ 0.0984 µM)
MIC (Candida auris strains; 48 h, strain 25 VCPI 265/P/14, 48 h): > 16 µg/mL
MIC (Candida auris strains; 48 h, strain 26 VCPI 266/P/14, 48 h): 0.125 µg/mL (≈ 0.0984 µM)
MIC (Candida auris strains; 48 h, strain 27 VCPI 462/P/14, 48 h): > 16 µg/mL
MIC (Candida auris strains; 48 h, strain 28 VCPI 463/P/14, 48 h): 0.125 µg/mL (≈ 0.0984 µM)
MIC (Candida auris strains; 48 h, strain 29 VCPI 467/P/14, 48 h): 0.25 µg/mL (≈ 0.197 µM)
MIC (Candida auris strains; 48 h, strain 31 VCPI 478/P/14, 48 h): 0.5 µg/mL (≈ 0.394 µM)
MIC (Candida auris strains; 48 h, strain 32 VCPI 518/P/14, 48 h): 0.5 µg/mL (≈ 0.394 µM)
MIC (Candida auris strains; 48 h, strain 33 VCPI 550/P/14, 48 h): 0.5 µg/mL (≈ 0.394 µM)
MIC (Candida auris strains; 48 h, strain 34 VCPI 714/P/14, 48 h): 0.25 µg/mL (≈ 0.197 µM)
MIC (Candida auris strains; 48 h, strain 35 VCPI 717/P/14, 48 h): 0.125 µg/mL (≈ 0.0984 µM)
MIC (Candida auris strains; 48 h, strain 36 VCPI 1060/P/14, 48 h): 0.25 µg/mL (≈ 0.197 µM)
MIC (Candida auris strains; 48 h, strain 37 VCPI 74/P/15, 48 h): 0.25 µg/mL (≈ 0.197 µM)
MIC (Candida auris strains; 48 h, strain 38 VCPI 213/P/15, 48 h): 0.25 µg/mL (≈ 0.197 µM)
MIC (Candida auris strains; 48 h): > 16 µg/mL
Group Geometric mean (lung burden) ([1]; Micafungin 2 mg/kg IP Day 0): 1.08 × 10^4 CFU/g
Log10 Group Geometric mean (lung burden) ([1]; Micafungin 2 mg/kg IP Day 0): 4.03 CFU/g
Log10 reduction from vehicle control ([1]; Micafungin 2 mg/kg IP Day 0): −0.26 CFU/g
Group Geometric mean (lung burden) ([1]; Micafungin 2 mg/kg IP Day −1): 4.34 x 10^4 CFU/g
Log10 Group Geometric mean (lung burden) ([1]; Micafungin 2 mg/kg IP Day −1): 4.64 CFU/g
Log10 reduction from vehicle control ([1]; Micafungin 2 mg/kg IP Day −1): −0.86 CFU/g
